According to US12214058B2, “Imaging methods using deuterated compounds” (Genentech, Inc., priority 2014, dated 2025):

Legend:
[1] = tested on: tau (NFTs) in human brain tissues; assay: Autoradiography on postmortem human brain tissues; format: binding
Protocol: Autoradiography The tracer [^18F][A] or [^18F][A]-d2 was dissolved in PBS containing 5% DMSO and 5% ethanol at final concentration 40 μCi/mL. Then 0.5 ml of stock solution was transferred to a microscope slide with 5 μm thick freshly dried section of a tissue and incubated for 90 min at room temperature. The slides were washed by dipping into following solutions: PBS for 1 min, 70% ethanol 2 min, 30% ethanol 2 min and PBS 1 min. The samples were dried at room temperature for 30 min and exposed to phosphorimager plate for 20 h. The exposed plates were scanned at 25 μm resolution.
Autoradiographic evaluation of [^18F][A] and [^18F][A]-d2 was performed using brain tissues collected postmortem from human donors. […] The positive staining was found in grey matter of tissues containing high level of NFTs and high AD-amyloid characterized as Braak score 5. […] The NFT and Aβ-amyloid burden was measured by standard immunohistochemical methods.

[2] = Dynamic microPET imaging in mice; format: in vivo, mice (C57BL/6)
Protocol: MicroPET Imaging The PET imaging was performed on Inveon PET/CT scanner (Siemens Medical Solutions USA Inc.). Animals anesthetized with sevoflurane were placed head-first, prone position on the scanner bed and dynamic 45 min scans were initiated. Approximately 3.7 MBq of ^18F-radiolabeled tracer in isotonic solution (100-130 μL) was administered as 60 second intravenous infusion via the tail vein. Body temperature was measured by a rectal probe and maintained with warm air flow at 37° C. Full-body iterative image reconstructions were obtained using maximum a posteriori algorithm (MAP, hyperparameter β 0.05) and corrected for signal attenuation using the tissue density obtained from CT. Projections were created with PMOD 3.305 (PMOD Technologies, Ltd., Zurich, Switzerland) and used to obtain quantitative activity levels in each organ of interest using region-of-interest analysis.

[3] = Microsomal stability assay, rhesus liver microsomes; format: in vitro ADME
Protocol: Microsomal stability assays The tracer [^18F][A]-d2 or [^18F][A] was dissolved in potassium phosphate (Kpi) buffer (100 mM) at concentration 500-600 μCi/mL. The non-radioactive 7 and 10 were dissolved in Kpi buffer at 10 μM concentration. The reaction vessel was charged with human or mouse liver microsome suspension (12.5 μL, 20 mg/mL) followed by Kpi buffer (388 μL, 10 mM), NADPH (50 μL, 10 mM) and incubated at 37° C. for 5-10 min. A solution of the radioactive [^18F][A]-d2 or [^18F][A] (50 μL, […]) or non-radioactive 7 or 8 (50 μL, 10 μM) were added to the reaction vessel and the mixture was incubated at 37° C. Aliquots (50 μL) of the reaction mixture were taken at 5, 15 and 45 minutes post addition of the tested compound, mixed with ice-cold acetonitrile (100 μL) and centrifuged. The supernatant was analyzed by LCMS (System E). The radiolabeled tracers [^18F][A] and [^18F][A]-d2 (n=3) were incubated with human, rhesus or mouse liver microsome suspension with or without NADPH at 37° C. and the mixture was analyzed for a presence of radioactive metabolites at 5, 15 and 45 min. In the presence of mouse and rhesus liver microsomes, both the [^18F][A] and [^18F][A]-d2 metabolized rapidly to ^18F-fluoride (retention time (rt)=0.38 min), and two radioactive metabolites M2 and M1 (rt=1.2 and 1.4 min). […]

[4] = Dynamic PET in anesthetized rhesus; format: in vivo; conditions: 370 MBq i.v. bolus, PET over 240 min, versus [18F][A] and 18F T807
Protocol: [^18F][A]-d2, [^18F][A] or ^18F T807 (see Chien et al., J. Alzheimers Dis, 38:171-84 (2014)) (370 MBq (10 mCi)) was intravenous bolus injected into an anesthetized rhesus, and dynamic PET data acquired over 240 minutes. […] Data was collected from the same animal but on different days for each probe.

[2H]C([2H])([18F])CC1CCN(c2ccn3c(n2)nc2ccccc23)CC1 [[^18F][A]-d2, 1,1-dideutero-2-(1-(benzo[4,5]imidazo[1,2-a]pyrimidine-2-yl)piperidin-4-yl)-1-[^18F]fluoroethane]
staining of negative control tissues ([1]; high or moderate amyloid burden but no NFTs, Braak score 3 or 2): not positively stained | autoradiographic binding pattern ([1]; human brain tissues, positive staining in grey matter with high NFTs, Braak score 5): tau specific binding patterns | reduction in bone uptake versus [18F][A] ([2]; in vivo PET): ~54% | uptake in liver and kidneys, comparison of the two tracers ([2]; n=6): indistinguishable | bone uptake ([2]; n=6, 30-45 min post tracer injection): 14.3±1.7 % ID/g | peak uptake in brain ([2]; n=6, i.v., dynamic PET): 7.4±2.2 % ID/g | stability of parent compound compared with mouse liver microsomes [3]: slightly more stable | stability / skull uptake of free fluoride [4]: increased stability reflected by a reduction of skull uptake of free fluoride
